Measurements taken from patent publication US8487108B2, “Piperidinyl carbamate intermediates for the synthesis of aspartic protease inhibitors” (Vitae Pharmaceuticals, Inc., priority 2005, dated 2013).
pIC50: −log10 of the molar value.

What follows are molecules tested against T1, trypsin-activated recombinant human renin (Homo sapiens, UniProt P00797) (assay: Renin fluorescence assay (internally quenched peptide substrate)). Details: compounds I*.
T1 sequence (P00797 67-406): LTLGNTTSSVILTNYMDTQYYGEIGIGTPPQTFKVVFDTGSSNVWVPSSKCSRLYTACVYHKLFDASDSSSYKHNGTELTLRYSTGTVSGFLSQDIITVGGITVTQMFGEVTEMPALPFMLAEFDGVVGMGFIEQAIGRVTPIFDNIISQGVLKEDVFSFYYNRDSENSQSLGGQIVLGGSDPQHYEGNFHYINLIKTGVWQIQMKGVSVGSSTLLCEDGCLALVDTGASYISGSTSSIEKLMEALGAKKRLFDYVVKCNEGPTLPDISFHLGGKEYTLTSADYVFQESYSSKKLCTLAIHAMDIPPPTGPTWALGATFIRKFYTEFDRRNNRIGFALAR
Assay type: biochemical
Procedure, shortened: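 Compounds (1 nM–10 μM final, DMSO) were mixed with internally quenched angiotensinogen-sequence substrate in pH 7.0 BES/NaCl/BSA buffer, then 0.2-2 nM trypsin-activated human renin added. Rate from the linear fluorescence increase (340 nm excitation, 495 nm emission) over 60-360 min at rt, compared with uninhibited control.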

SMILES | pIC50
CNC[C@H](C[C@H]1CCC(=O)N(C)C1)NC(=O)N1CCC[C@@H]([C@@H](OCCNC(=O)OC)c2cccc(F)c2)C1 [I*-76a, methyl 2-((R)-(3-fluorophenyl)((R)-1-((S)-1-((R)-1-methyl-6-oxopiperidin-3-yl)-3-(methylamino)propan-2-ylcarbamoyl)piperidin-3-yl)methoxy)ethylcarbamate] | < 7.30
CNC[C@H](CCCOC)NC(=O)N1CCC[C@@H]([C@@H](OCCNC(=O)OC)c2cccc(Cl)c2)C1 [I*-1a] | < 7.30
CNC[C@@H](NC(=O)N1CCC[C@@H]([C@@H](OCCNC(=O)OC)c2cc(Cl)ccc2C)C1)[C@@H](O)C1CCCC1 [I*-107a, methyl 2-((R)-(5-chloro-2-methylphenyl)((R)-1-((1S,2R)-1-cyclopentyl-1-hydroxy-3-(methylamino)propan-2-ylcarbamoyl)piperidin-3-yl)methoxy)ethylcarbamate] | > 8.00
CNC[C@H](CC1CCCCC1)NC(=O)N1CCC[C@@H]([C@@H](OCCNC(=O)OC)c2cc(F)cc(F)c2)C1 [I*-64a, methyl 2-((R)-((R)-1-((S)-1-cyclohexyl-3-(methylamino)propan-2-ylcarbamoyl)piperidin-3-yl)(3,5-difluorophenyl)methoxy)ethylcarbamate] | > 9.00
CNC[C@H](CC1CCCCC1)NC(=O)N1CCC[C@@H]([C@@](C)(OCC(=O)NC)c2cccc(Cl)c2)C1 [I*-25a, (R)-3-((R)-1-(3-chlorophenyl)-1-(2-(methylamino)-2-oxoethoxy)ethyl)-N—((S)-1-cyclohexyl-3-(methylamino)propan-2-yl)piperidine-1-carboxamide] | < 7.30

Results, then the molecule that gave them:

pIC50 | SMILES
> 8.00 | CNC[C@H](CC1CCCOCC1)NC(=O)N1CCC[C@@H]([C@@H](OCCNC(=O)OC)c2cccc(F)c2)C1 (stereo partly drawn) [I*-47a, methyl 2-((R)-(3-fluorophenyl)((3R)-1-((S)-1-(methylamino)-3-(oxepan-4-yl)propan-2-ylcarbamoyl)piperidin-3-yl)methoxy)ethylcarbamate]
> 9.00 | CNC[C@H](CC1CCCCC1)NC(=O)N1CCC[C@@H]([C@@H](OCCNC(=O)OC)c2cc(Cl)ccc2F)C1 [I*-117a, methyl 2-((R)-(5-chloro-2-fluorophenyl)((R)-1-((S)-1-cyclohexyl-3-(methylamino)propan-2-ylcarbamoyl)piperidin-3-yl)methoxy)ethylcarbamate]
> 9.00 | CNC[C@H](CC1CCCCC1)NC(=O)N1CCC[C@@H]([C@@H](OCCNC(=O)OC)c2cc(Cl)ccc2C)C1 [I*-85a, methyl 2-((R)-(5-chloro-2-methylphenyl)((R)-1-((S)-1-cyclohexyl-3-(methylamino)propan-2-ylcarbamoyl)piperidin-3-yl)methoxy)ethylcarbamate]
> 8.00 | COC(=O)NCCO[C@@H](c1cccc(Cl)c1)[C@@H]1CCCN(C(=O)N[C@](C)(CN)CC2CCCCC2)C1 [I*-59a, methyl 2-((R)-((R)-1-((S)-1-amino-3-cyclohexyl-2-methylpropan-2-ylcarbamoyl)piperidin-3-yl)(3-chlorophenyl)methoxy)ethylcarbamate]
> 8.00 | CNC[C@H](C[C@H]1CCCOC1)NC(=O)N1CCC[C@@H]([C@@](O)(CCCNC(=O)OC)c2cccc(Cl)c2F)C1 [I*-142a, methyl (S)-4-(3-chloro-2-fluorophenyl)-4-hydroxy-4-((R)-1-((S)-1-(methylamino)-3-((R)-tetrahydro-2H-pyran-3-yl)propan-2-ylcarbamoyl)piperidin-3-yl)butylcarbamate]
> 8.00 | CNC[C@H](CC1CCCCC1)NC(=O)N1CCC[C@@H]([C@@H](OCCNC(=O)OC)c2c(C)ccc(F)c2F)C1 [I*-96a, methyl 2-((R)-((R)-1-((S)-1-cyclohexyl-3-(methylamino)propan-2-ylcarbamoyl)piperidin-3-yl)(2,3-difluoro-6-methylphenyl)methoxy)ethylcarbamate]
